Experimental data: patent US8835466B2, “Synthesis and uses of pyroglutamic acid derivatives” (Prodimed, S.A., priority 2006, dated 2014)

Key:
[1] = tested on: Ehrlich tumour cells (murine mammary adenocarcinoma); assay: Effect of isomers and BLAS on in vivo tumour growth, Ehrlich tumours (Example 9); set-up: species or system Balb/c mice; conditions: for Tumour surface, overall values (Mean) / Tumour surface, overall values (Median) / Tumour volume, overall values (Mean) / Tumour volume, overall values (Median): 260 ng/mouse i.p. days 6, 7 and 14
From the text: This assay was made in order to compare the effect of each stereoisomer on in vivo tumour growth in mice with the effect of the mixture of all of them challenged with Ehlrich tumours. The same products, equipment, reagents, doses, vehicle and route of administration as in example 8 were used.
Mice were inoculated with Ehrlich tumour cells. It was described as a murine mammary adenocarcinoma. Ehrlich tumour is a murine mammary carcinoma originally raised in an outbred mouse, and therefore it belongs to the so-called non-specific tumours (Subiza J L, Viñuela J E, Rodriguez R, Gil J, Figueredo M A, de la Concha. E G. Development of splenic natural suppressor (NS) cells in Ehrlich tumor bearing mice. Int J Cancer, 44:307 315; 1989). It may grow across histocompatibility barriers and therefore is not mouse strain specific (Carry P J, Prescott D M, Ogilvie G K. Resistance to Ehrlich ascites tumor in a strain of dystrophic mice. Cancer Res., 39:2139-2140; 1979).
Ehrlich cells were maintained in vitro by serial passages every 3-4 days. Cultures were performed with RPMI medium medium (RPMI, 10% foetal calf serum, 2 mM L-glutamine, non essential aminoacids, 1 mM sodium pyruvate, 20 mM HEPES, 80 μg/mL gentamycin; all of them were purchased from Sigma, St. Louis, Mo., USA) by seeding 5×10^6 cells onto 75 cm^2 culture flasks. Tumour cells collected from 48 hour cultures were used as source of cells for the studies described below.
Tumours were established by subcutaneous inoculation in the right hind flank. Mice (Balb/c) were inoculated with 0.2 mL containing 2×10^5 viable Ehrlich cells. The day of subcutaneous inoculation will be considered Day 0 of the test.
Mice were observed daily and the tumour size recorded twice a week. This was carried out by measuring two perpendicular diameters (L/W) with a calliper. These measures were used to obtain both tumour surface and volume: Tumour surface=L×W(mm^2) Tumour volume=L×W^2×½(mm^3)
Results were expressed as single values and/or as the mean±SD or median from each experimental group.
A case-control study was performed with treated and control mice in order to determine whether differences between BLAS or each diferent stereoisomer and administration of placebo were present. […] The U-test of Mann Withney was chosen for being one of the better known non-parametrical tests, anyway, results for this test are equivalent both to those of Wilcoxon's sum of ranges and Kruskal-Wallis two-groups test.

[2] = tested on: KLN 205 cells (lung cell carcinoma); assay: Effect of 9d in combination with Cisplatin on tumour growth, KLN 205 (Example 11); assay type: in vivo, DBA/2 mice; conditions: for Tumour surface, overall values (Mean) / Tumour surface, overall values (Median) / Tumour volume, overall values (Mean) / Tumour volume, overall values (Median): 9d 250 ng, Cisplatin 65 μg i.p. days 3, 6, 10, 13, 17, 20
Protocol: This was carried out by measuring two perpendicular diameters (d1/d2) with a calliper. These measures were used to obtain both tumour surface and volume: […] Results were expressed as single values and/or as the mean±SD or median from each experimental group. This assay was made in order to check the effect on in vivo tumour growth in mice challenged with KLN 205 cells. Their effect was compared with the combination of Cisplatin plus 9d and/or placebo. KLN 205 is a lung cell carcinoma originated in DBA/2 mouse strain, and therefore syngeneic in mice with DBA/2 genetic background (Kaneko T and […]. Growth characteristics and drug responses of a murine lung carcinoma in vitro and in vivo. Cancer Res. 38: 2084-2090; 1978). KLN 205 cells (CLS, Eppelheim, Germany) were maintained in vitro by serial passages every 3-4 days. […] Louis, Mo., USA) by seeding 5×10^6 cells onto 75 cm^2 culture flasks. Subcultures were carried out by collecting detached cells after treatment with trypsin-EDTA (Sigma, St. Louis, Mo., USA). Tumour cells, collected from 48 hour cultures, were used as source of KLN 205 cells for the studies described below. […] Tumours were established by subcutaneous inoculation in the right hind flank. Mice (DBA/2) were inoculated with 0.2 mL containing 2×10^5 viable KLN 205 cells. The day of subcutaneous inoculation will be considered Day 0 of the test. A case-control study was performed with treated and control mice in order to determine whether differences between placebo, 9d, Cisplatin or 9d+Cisplatin were present. […] The t-test was chosen for being one of the better known parametrical tests.

[3] = day 13 after tumour inoculation
[4] = day 16 after tumour inoculation
[5] = day 20 after tumour inoculation
[6] = day 23 after tumour inoculation
[7] = day 29 after tumour inoculation
[8] = day 31 after tumour inoculation
[9] = day 35 after tumour inoculation
[10] = day 38 after tumour inoculation
[11] = day 10 after tumour inoculation
[12] = day 17 after tumour inoculation
[13] = day 24 after tumour inoculation
[14] = day 27 after tumour inoculation
[15] = day 34 after tumour inoculation

SMILES: Br.N[C@]1(C[n+]2ccccc2)C[C@H](C(=O)O)NC1=O.[Br-] (single isomer, unassigned; isomer 4) [isomer 4, 3S,5R-1-(3-Amino-5-carboxy-2-oxopyrrolidin-3-ylmethyl)pyridinium bromide hidrobromide]
- Inhibition of the in vivo growth of Ehrlich tumour cells, in words ([1]; 260 ng i.p. days 6, 7 and 14): inhibit the in vivo growth
- Tumour surface, overall values (Mean) ([1]; day 0 after tumour inoculation): 0 mm^2
- Tumour surface, overall values (Median) ([1]; day 0 after tumour inoculation): 0 mm^2
- Tumour volume, overall values (Mean) ([1]; day 0 after tumour inoculation): 0 mm^3
- Tumour volume, overall values (Median) ([1]; day 0 after tumour inoculation): 0 mm^3
- Tumour surface, overall values (Mean) ([1]; day 8 after tumour inoculation): 3.37 mm^2
- Tumour surface, overall values (Median) ([1]; day 8 after tumour inoculation): 0 mm^2
- Tumour volume, overall values (Mean) ([1]; day 8 after tumour inoculation): 5.94 mm^3
- Tumour volume, overall values (Median) ([1]; day 8 after tumour inoculation): 0 mm^3
- Tumour surface, overall values (Mean) [1, 3]: 12.44 mm^2
- Tumour surface, overall values (Median) [1, 3]: 12.5 mm^2
- Tumour volume, overall values (Mean) [1, 3]: 26.91 mm^3
- Tumour volume, overall values (Median) [1, 3]: 22.75 mm^3
- Tumour surface, overall values (Mean) [1, 4]: 20.19 mm^2
- Tumour surface, overall values (Median) [1, 4]: 18 mm^2
- Tumour volume, overall values (Mean) [1, 4]: 50.34 mm^3
- Tumour volume, overall values (Median) [1, 4]: 36 mm^3
- Tumour surface, overall values (Mean) [1, 5]: 31.31 mm^2
- Tumour surface, overall values (Median) [1, 5]: 27.5 mm^2
- Tumour volume, overall values (Mean) [1, 5]: 95.59 mm^3
- Tumour volume, overall values (Median) [1, 5]: 68.75 mm^3
- Tumour surface, overall values (Mean) [1, 6]: 43.06 mm^2
- Tumour surface, overall values (Median) [1, 6]: 39 mm^2
- Tumour volume, overall values (Mean) [1, 6]: 156.53 mm^3
- Tumour volume, overall values (Median) [1, 6]: 117 mm^3
- Tumour surface, overall values (Mean) [1, 7]: 52.94 mm^2
- Tumour surface, overall values (Median) [1, 7]: 45 mm^2
- Tumour volume, overall values (Mean) [1, 7]: 214.91 mm^3
- Tumour volume, overall values (Median) [1, 7]: 135 mm^3
- Tumour surface, overall values (Mean) [1, 8]: 63.12 mm^2
- Tumour surface, overall values (Median) [1, 8]: 48.5 mm^2
- Tumour volume, overall values (Mean) [1, 8]: 274.94 mm^3
- Tumour volume, overall values (Median) [1, 8]: 157.75 mm^3
- Tumour surface, overall values (Mean) [1, 9]: 76.31 mm^2
- Tumour surface, overall values (Median) [1, 9]: 52.5 mm^2
- Tumour volume, overall values (Mean) [1, 9]: 379.72 mm^3
- Tumour volume, overall values (Median) [1, 9]: 183.75 mm^3
- Tumour surface, overall values (Mean) [1, 10]: 91.56 mm^2
- Tumour surface, overall values (Median) [1, 10]: 68 mm^2
- Tumour volume, overall values (Mean) [1, 10]: 504.22 mm^3
- Tumour volume, overall values (Median) [1, 10]: 272 mm^3
- Differences in Ehrlich tumour growth rate vs. placebo, statistical significance p (Mann-Whitney U test) ([1]; either in surface or volume, all days scored after the day 8th): < 0.05
- Ehrlich tumour growth vs. placebo, tendency p ([1]; surface, day 35th): 0.061
- Ehrlich tumour growth vs. placebo, tendency p ([1]; surface, day 38th): 0.08
- Ehrlich tumour growth vs. placebo, tendency p ([1]; volume, days 35th and 38th (both of them)): 0.102
- Tumour surface, overall values (Mean) ([2]; day 0 after tumour inoculation): 0 mm^2
- Tumour surface, overall values (Median) ([2]; day 0 after tumour inoculation): 0 mm^2
- Tumour volume, overall values (Mean) ([2]; day 0 after tumour inoculation): 0 mm^3
- Tumour volume, overall values (Median) ([2]; day 0 after tumour inoculation): 0 mm^3
- Tumour surface, overall values (Mean) [2, 11]: 5.38 mm^2
- Tumour surface, overall values (Median) [2, 11]: 4 mm^2
- Tumour volume, overall values (Mean) [2, 11]: 8.81 mm^3
- Tumour volume, overall values (Median) [2, 11]: 4 mm^3
- Tumour surface, overall values (Mean) [2, 3]: 17.25 mm^2
- Tumour surface, overall values (Median) [2, 3]: 16 mm^2
- Tumour volume, overall values (Mean) [2, 3]: 43.38 mm^3
- Tumour volume, overall values (Median) [2, 3]: 32 mm^3
- Tumour surface, overall values (Mean) [2, 12]: 29.88 mm^2
- Tumour volume, overall values (Mean) [2, 12]: 94.56 mm^3
- Tumour surface, overall values (Mean) [2, 5]: 57.06 mm^2
- Tumour surface, overall values (Median) [2, 5]: 36 mm^2
- Tumour volume, overall values (Mean) [2, 5]: 246.03 mm^3
- Tumour volume, overall values (Median) [2, 5]: 108 mm^3
- Tumour surface, overall values (Mean) [2, 13]: 81.38 mm^2
- Tumour surface, overall values (Median) [2, 13]: 64 mm^2
- Tumour volume, overall values (Mean) [2, 13]: 393.25 mm^3
- Tumour volume, overall values (Median) [2, 13]: 256 mm^3
- Tumour surface, overall values (Mean) [2, 14]: 113.5 mm^2
- Tumour surface, overall values (Median) [2, 14]: 105.5 mm^2
- Tumour volume, overall values (Mean) [2, 14]: 611.75 mm^3
- Tumour volume, overall values (Median) [2, 14]: 446.75 mm^3
- Tumour surface, overall values (Mean) [2, 8]: 135.31 mm^2
- Tumour surface, overall values (Median) [2, 8]: 132.5 mm^2
- Tumour volume, overall values (Mean) [2, 8]: 777.53 mm^3
- Tumour volume, overall values (Median) [2, 8]: 628.75 mm^3
- Tumour surface, overall values (Mean) [2, 15]: 168.81 mm^2
- Tumour surface, overall values (Median) [2, 15]: 170.5 mm^2
- Tumour volume, overall values (Mean) [2, 15]: 1068.3 mm^3
- Tumour volume, overall values (Median) [2, 15]: 937.75 mm^3
- Tumour surface, overall values (Mean) [2, 10]: 214.44 mm^2
- Tumour surface, overall values (Median) [2, 10]: 227.5 mm^2
- Tumour volume, overall values (Mean) [2, 10]: 1504.7 mm^3
- Tumour volume, overall values (Median) [2, 10]: 1478.8 mm^3
- KLN 205 tumour growth vs. placebo, tendency in words ([2]; either in surface or volume, all days scored after day 31th, t-test): significant tendency
- Differences in KLN 205 tumour growth rate vs. placebo, in words ([2]; t-test, 250 ng i.p.): not differences
